Data: a melting point compilation (Tetko et al.; mined from patent text by program, amines drawn as free bases though some values may be those of a salt)

Row | SMILES | melting point [°C]
1 | OC(CCCCCCCCOCc1ccccc1)c1ccc(OCc2ccccc2)c(OCc2ccccc2)c1 (stereo not given) | 46 to 48
2 | COc1cc(OCc2ccccn2)c(C=CC(=O)c2ccc(S(N)(=O)=O)cc2)cc1-c1cccs1 | 188 to 189
3 | Cc1cc(C)c(Oc2nc(C)nc(Cl)c2Cl)c(C)c1 | 68 to 70
4 | CCOC(=O)c1cn(-c2cc(OC)c(F)cc2F)c2c(C)c([N+](=O)[O-])c(F)cc2c1=O | 248 to 250
5 | Cc1cc(Cl)ccc1-c1nc(=O)c2ccccc2s1 | 134
6 | C=CCC(=O)NCCN1CCOc2ccc(OC)cc21 | 80 to 81
7 | CC(=O)NC1CSC(=S)N(c2cccc(F)c2)C1=O (stereo not given) | 176 to 177
8 | CCCn1c(=O)c2[nH]c(-c3cc(C)n(CC(=O)Nc4ccc(C)cc4)n3)nc2n(CCC)c1=O | > 300
9 | CN(C[C@H]1CC[C@H](C#CCO)CC1)C(=O)OC(C)(C)C | 97 to 99
10 | COC(=O)C(C)c1nsc2ccc([N+](=O)[O-])cc12 (stereo not given) | 88 to 90
11 | CCCCC1(CCCC)NC(=O)c2ccccc2N1C | 77 to 78
12 | CC(=O)N[C@H]1c2cc(C#N)ccc2OC(C)(C)[C@H]1O (relative stereo) | 193 to 194
13 | COc1ccc(CNC(=O)C(C)=NNc2ccc(Cl)cc2)cc1 | 156 to 158
14 | CCNC(=O)c1ccc(N2CCNCC2)c(Cl)c1 | 117 to 119
15 | NC(=O)NN=Cc1c2ccccc2c(C=NNC(N)=O)c2ccccc12 | 300
16 | COc1cc(Nc2nc3c(ccc4c3ncn4CCN3CCOCC3)cc2C#N)c(C)cc1Cl | 246 to 248
17 | COCOc1cc(COc2nn(Cc3ccccc3)cc2CO)ccc1OCc1nc(-c2ccco2)oc1C | 98 to 99
18 | O=C(O)c1ccc(CO/N=C/c2cn(Cc3ccccc3)c3ccccc23)cc1Br | 107 to 109
19 | Cc1nn(CC(F)(F)COC(=O)N(C)C)c(-c2ccc(F)cc2)c1-c1ccc2c(c1)NC(=O)CO2 | 146
20 | Cc1cn2c(N)c(Cl)cc(C(=O)NCC3CCN(CC(C)C)CC3)c2n1 | 216 to 219
21 | O=C(O)c1ccc(-c2cnc3c(c2)N(Cc2ccccc2)C(=O)CN3)cc1 | > 200
22 | CCSc1cnn(-c2cc(-c3ccnc(Nc4cccc(Cl)c4)n3)ccn2)c(=O)c1Cl | 80 to 100

Row | SMILES | melting point [°C]
23 | O=C(O)c1cn(-c2cc(O)c(F)cc2[N+](=O)[O-])c2c(Cl)c(F)c(F)cc2c1=O | 248 to 255
24 | OCCN(CCO)CC(c1ccc(Cl)cc1)c1ccc(Cl)cc1 | 75 to 76
25 | CCC(CC)Cn1nc(-c2ccc(O)cc2O)c2cccc(C(F)(F)F)c21 | 89 to 90
26 | CCCCCC(=O)Oc1ccc(-c2ccc(C#N)cc2)cc1 | 56.1
27 | COc1cc(NC(=O)c2ccccc2)c(=O)[nH]c1C | 247 to 248
28 | CCN1CCN(CC(=O)OCCOC)C(=O)c2ccc(Nc3ncc(Cl)c(Nc4ccccc4C(=O)NC)n3)cc21 | 198 to 202
29 | COc1ccc(C(O)Cc2c(Cl)cncc2Cl)cc1OC1CCCC1 (stereo not given) | 124 to 125
30 | CCOC(=O)c1cc(Cl)cnc1NC(=O)Cc1ccccc1 | 114
31 | CC(C)(C)n1nc2nc3n(c(=O)c2c1N)CCS3 | 154 to 158
32 | CCc1ccc(NC(=O)N[C@H]2C[C@H](C(=O)O)Nc3cc(Cl)cc(Cl)c32)cc1 (relative stereo) | 195 to 197
33 | CCOc1ccc(-c2c(Cl)c(CCl)nc3sc4c(c23)CCN(C(=O)OCc2ccccc2)C4)cc1 | 159 to 161
34 | Brc1ccc2c(Sc3ccccc3)c[nH]c2c1 | 145 to 148
35 | CC/C=C\C/C=C\C/C=C\CCCCCCCC(=O)Nc1c(OC)cc(OC)cc1OC | 86 to 88
36 | O=C(CN1CCN(C(=O)OCc2ccccc2)CC1)Nc1ccccn1 | 78 to 80
37 | COc1ccc2[nH]c3c(c2c1)C(C(=O)OCc1ccccc1)CCC3 (stereo not given) | 81 to 83
38 | Cc1cc2c(cc1O)C(C1(c3ccccn3)CC1)N(C)CC2 (stereo not given) | 218
39 | CCOC(=O)C(=CNCc1csnn1)C(=O)c1cc(F)c(F)cc1F | 176 to 178
40 | C/C=C/CNc1cccc(-c2ccnc3c(C(=O)c4cccs4)cnn23)c1 | 110 to 113
41 | COC(=O)c1cc(OCCCCCCCCCCCCOc2ccccc2)ccc1OCc1ccccc1 | 46 to 48
42 | COc1c(Cl)cc(Cl)cc1-n1c(=O)[nH]c2ccccc21 | 202 to 203
43 | CCOCc1nc2c(N)nc3ccccc3c2n1NCCCNC(=O)C1CCCC1 | 75 to 77
44 | Cc1coc(N2CCCC2=O)n1 | 116

Row | SMILES | melting point [°C]
45 | CC(=O)c1cn(Cc2ccccc2F)c(=O)n(Cc2ccccc2F)c1=O | 149 to 150
46 | CC1CSc2c(-c3ccccc3)c3ccccc3c(=O)n21 (stereo not given) | 204 to 208
47 | Cn1ncc(C(=O)O)c1C(=O)Nc1ccn2nc(Br)nc2c1 | > 250
48 | O=c1ncc(Cl)cn1COCc1cccs1 | 132
49 | CC1CC(N2C(=O)c3ccccc3C2=O)C(=O)NC1=O (stereo not given) | 270 to 272
50 | COc1cc2c(cc1OC)N(C)C(=O)CNC2=O | 260 to 263
51 | CNC(=O)c1ccccc1CC(O)(CCN(C)C)c1ccccc1 (stereo not given) | 140
52 | CC(C)COC(=O)ON1C(=O)CCC1=O | 33 to 35
53 | CNC(=O)c1cccc(NC(=O)Cc2ccc(Br)cc2)c1 | 165 to 166
54 | COc1cc(-n2cnc3cc(-c4ccc(Cl)cc4)sc3c2=O)ccc1OCC1(OP(=O)(O)O)CC(F)(F)C1 | 219
55 | CCOC(=O)c1ccccc1-n1nnnc1C | 98 to 100
56 | CC(C)n1nc(-c2c(OCCN)nc(N)nc2-c2ccccc2)ccc1=O | 213 to 216
57 | O=C(Nc1ccc(C(F)(F)F)cc1)OC1CCCNC1 (stereo not given) | 150 to 151
58 | COC(=O)c1ccc(-c2csc(N3C(=O)OCC3(C)C)n2)cc1 | 176 to 179
59 | C[C@H](CSc1nc2ccccc2[nH]1)Nc1nc(Cl)nc2c1ncn2[C@@H]1O[C@H](CO)[C@@H](O)[C@H]1O | 213 to 215
60 | O=C(NCCc1ccccc1)c1ccccn1 | 58 to 59
61 | CN1C(=O)CON(C(=O)OCc2ccccc2)C1c1ccccc1 (stereo not given) | 82 to 83
62 | Nc1ccc(S(=O)(=O)c2cc(-c3ccc4ccccc4c3)nc(N3CCCC3)c2)cc1 | 244 to 246
63 | O=C(Nc1ccc(C(F)(F)F)cc1)NC1CCN(S(=O)(=O)c2cccc(C(F)(F)F)c2)CC1 | 246 to 251
64 | Cc1cc(CO)nc(N2CCN(c3ccnc([C@@H](C)O)n3)CC2)n1 | 139 to 140

Now from value to compound:

Row | melting point [°C] | SMILES
65 | 289 to 290 | Cc1oc2cc(O)ccc2c(=O)c1C(N)=O
66 | 145 to 148 | CCOC(=O)CNC(=O)c1ccc(-c2ccc([N+](=O)[O-])cc2)cc1
67 | 248 | O=C1Nc2ccc(Cl)cc2C1(O)c1cccc(F)c1F (stereo not given)
68 | 158 | CC(C)(C)c1ccc(/C=N/OCCCOc2ccc(C(=O)O)c(NC(=O)c3cc(C(F)(F)F)cc(C(F)(F)F)c3)c2)cc1
69 | 143 to 144 | Cc1nnc(NCCCOc2cccc(CN3CCCCC3)c2)n1C
70 | 160 to 162 | Cc1nc(N2CCN(Cc3ccc(C(F)(F)F)cc3)C2=O)sc1-c1cnco1
71 | 279 to 280 | COc1ccc(C(=O)Nc2ccc(C(=O)NCc3ccccc3)cc2)cc1C12CC3CC(CC(C3)C1)C2
72 | 153 to 156 | N#Cc1c(Cl)c(Cl)n(CCl)c1-c1ccc(Cl)c(Cl)c1
73 | 51.5 to 53.2 | CC(C)(C)OC(=O)[C@H]1CCCN1
74 | 105 | CCO[C@@H](Cc1ccc(O)cc1)C(=O)O
75 | 97 | C[C@@H](S[C@H]1CO[C@H](c2ccc(C(=O)NCc3cccc4ccccc34)cc2)OC1)[C@](O)(Cn1cncn1)c1ccc(F)cc1F
76 | 128 to 132 | COC(=O)C(=CNC1CC1)C(=O)c1cc(F)c(Cl)cc1OC
77 | 249 | CC(C)(C)OC(=O)N1CCC(Nc2nc3ccccc3[nH]2)CC1
78 | 59.4 to 60.5 | COC(=O)C(CCCCCCCCCCCCC(C(=O)O)C1CC1)C1CC1 (stereo not given)
79 | 222 to 224 | N#Cc1ccc(CN2C(=O)C3CCCC3N(C(=O)CN3C(=O)c4ccccc4C3=O)c3ccccc32)cc1 (stereo not given)
80 | 123 to 126 | Nc1cc(/C=C/c2cc(/C=C/c3ccc4cc[nH]c4c3)[nH]n2)ccc1O
81 | 122 to 123 | Cc1csc(-c2ncccc2C(=O)c2ccccn2)c1
82 | 120 to 122 | CCCCCCCCCC(=O)N[C@@H](C)C(=O)N[C@@H](Cc1ccccc1)C(=O)OC

Row | melting point [°C] | SMILES
83 | 118 to 126 | CCCc1c(OCCC2Cc3cc(CC(=O)O)ccc3O2)ccc(C(C)=O)c1O (stereo not given)
84 | 198 to 200 | CC(=O)Nc1ccc(C(=O)N2CCOCC2)cc1N
85 | 94 to 96 | O=CN1c2ccccc2N(Cc2ccccc2)CC1CN1CCCC1 (stereo not given)
86 | 63 to 65 | CC(C)(C)OC(=O)NCC(=O)c1ccccc1
87 | 118 to 120 | CC(NCCCO)c1ccc(C2CCC(N(C)C(=O)c3ccc(Cl)cc3)CC2)cc1 (stereo not given)
88 | 127 to 130 | NS(=O)(=O)C=Cc1ccc(Cl)c(Cl)c1
89 | 108 to 110 | O=C(O)C=CC=CCSc1ccccc1
90 | 104 to 105 | Cc1cc(CCc2cc(C)cc(C(C)(C)C)c2O)c(O)c(C(C)(C)C)c1
91 | 159 to 160 | CCCOc1cnc(CN)cc1O
92 | 117 to 119 | COc1cccc([C@H]2O[C@H](CC(=O)Nc3cccc(CCCCC(=O)O)c3)C(=O)N(CC(C)(C)CO)c3ccc(Cl)cc32)c1OC
93 | 110 to 112 | N#CCCSN1C(=O)CCC1=O
94 | 146 to 148 | CC(C)c1ccc(-n2nc(Cl)cc2-c2ccc(S(C)(=O)=O)cc2)cc1
95 | 41.5 to 43.9 | CCCCCCCCCCOCCC(=O)O
96 | 100 to 102 | Cc1ccn(-c2ccc(C(=O)N3Cc4ccc(CN(C)C)n4Cc4ccccc43)c(Cl)c2)n1
97 | 90 to 91 | CN(CCO)c1ccncc1
98 | 215 to 217 | CN1CCN(Cc2ccc(NC(=O)c3nsc4cc(Oc5ccnc(N)n5)ccc34)cc2C(F)(F)F)CC1
99 | 113 to 116 | O=C(O)c1cc(=O)c2ccc(OCCCCCOc3ccc4c(=O)ccoc4c3)cc2o1
100 | 70 to 72 | O=C(Nc1ccc(OCCCN2CCNCC2)c2ccccc12)c1cc(F)cc(N2CCCCC2)c1
